Test results published in patent publication US4014909A, “Esters of 21-thiol steroids” (priority 1974, dated 1977).
Like-named read-outs stand apart in the source and are kept apart here.

How the values were obtained:
[1] = test system: liver, kidneys, spleen, thymus, stomach; assay type: in vivo, rat (Sprague-Dawley); details: 4 weeks
Text: The action on the endocrine glands and the genital tractus, and a possible ulcerogenic effect were investigated, together with the effects on the glucidic and proteic metabolisms, on the hydro-mineral equilibrium after long-term administration.
The principle of the tests employed is as follows.
The ulcer-producing action of certain corticoids, after repeated administration is well known, but the mechanism of this action still remains doubtful.
These studies have been carried out for some of the products according to the invention after sub-chronic administration.
There were utilized groups of 10 male rats and ten female rats of Sprague-Dawley S.P.F. strain which have been given the products under study by sub-cateneous methods daily for four weeks.
The products were administered in suspension in 5 % carboxy-methyl-cellulose under a volume of 0.5 ml. per 100 grams of body weight, in three different doses, the animals of the reference lot receiving the same volume of the vehicle alone.
At the end of this study there were extracted:
The samples numbered (1), (2) and (3) were immediately weighed. All the samples were then fixed for histological examination in the Bouin-Holland fixator.
During the course of the long-term study, the JO 1016 was administered daily to the male and female rats in doses of 100 mg/kg, 250 mg/kg, 500 mg/kg by the sub-cutaneous route.

[2] = Action on the protein metabolism: weight increase of immature rats, 96 hours; assay type: in vivo, rat (Wistar
Text: The action on the protein metabolism was examined by means of a test, the principle of which is as follows:
The administration of gluco-corticoids results in a disturbance of the protein metabolism, which is shown by an exaggerated protein catabolism resulting in shrinking of the tissues objectified by an inhibition of growth in weight in the young animal and a loss of body weight in the adult animal.
For this study, immature rats of Wistar strain were utilized, the initial weight of which was between 45 and 55 grams, which were distributed at random groups of 10.
The products under study were administered daily for 4 days. The animals were weighed daily during the 4 days of treatment and 24 hours after the last dose.
The products tested were administered either orally or by sub-cutaneous injection, in suspension in 5 % gum arabic for the oral route or in carboxy-methyl-cellulose at 5 % for the sub-cutaneous method, the animals of the reference group receiving the same volume of vehicle by the same method as the corresponding animals treated.
The average variation of the body weight during the 96 hours treatment was calculated for each group of animals.
The increase in weight of immature rats (45 to 55 grams) treated for 96 hours following the procedure (g) by JO 1016, by the oral or the sub-cutaneous routes (average weight at the end of the study, less the average weight at the beginning) are indicated in the following Table XVIII.

For `CC(C)(C)C(=O)SCC(=O)[C@@]1(O)CC[C@H]2[C@@H]3CCC4=CC(=O)CC[C@]4(C)[C@H]3[C@@H](O)C[C@@]21C` [JO 1016, Dihydroxy-11β, 17α thio-21 dioxo-3,20 pregnene-4-21 pivalate], the “Kidneys: presence of abscess (cases)” value ([1]; 250 mg/kg s.c. daily) was 0/10, the “Liver: presence of abscess (cases)” value ([1]; 250 mg/kg s.c. daily) was 0/10 and the “Spleen: atrophied (cases)” value ([1]; 250 mg/kg s.c. daily) was 0/10. For the same molecule, the “Stomach: ulcerated (cases)” value ([1]; 250 mg/kg s.c. daily) was 0/10, the “Stomach: ulcerated and infected (cases)” value ([1]; 250 mg/kg s.c. daily) was 0/10 and the “Thymus: atrophied (cases)” value ([1]; 250 mg/kg s.c. daily) was 0/10. For the same molecule, the “Kidneys: presence of abscess (cases)” value ([1]; 500 mg/kg s.c. daily) was 0/10, the “Liver: presence of abscess (cases)” value ([1]; 500 mg/kg s.c. daily) was 0/10 and the “Spleen: atrophied (cases)” value ([1]; 500 mg/kg s.c. daily) was 0/10. For the same molecule, the “Stomach: ulcerated (cases)” value ([1]; 500 mg/kg s.c. daily) was 0/10, the “Stomach: ulcerated and infected (cases)” value ([1]; 500 mg/kg s.c. daily) was 0/10 and the “Thymus: atrophied (cases)” value ([1]; 500 mg/kg s.c. daily) was 0/10. For the same molecule, the “Increase in weight of immature rats” value ([2]; 1 mg/rat/day, sub-cutaneous route) was 17 g, the “Increase in weight of immature rats” value ([2]; 3 mg/rat/day, oral route) was 14 g and the “Increase in weight of immature rats” value ([2]; 10 mg/rat/day (last line of Table XVIII (so in the source)), oral route) was 8 g. For the same molecule, the “Increase in weight of immature rats” value ([2]; 10 mg/rat/day, oral route) was 11 g, the “Increase in weight of immature rats” value ([2]; 10 mg/rat/day, sub-cutaneous route) was 16 g and the “Increase in weight of immature rats” value ([2]; 30 mg/rat/day, oral route) was 13 g. The “Increase in weight of immature rats” value ([2]; 30 mg/rat/day, sub-cutaneous route) was 16 g.
